System: MV-4-11 cells
Experiment: Gene expression microarray analysis (Affymetrix PrimeView) and GSEA
Type: cell-based, human
Design: RFU PODN (11730768_x_at) / Fold change /veh PODN (11730768_x_at) / RFU LINC00158 (11744669_a_at) / Fold change /veh LINC00158 (11744669_a_at) / RFU DUSP10 (11751237_a_at) / Fold change /veh DUSP10 (11751237_a_at) / RFU ID3 (11757404_x_at) / Fold change /veh ID3 (11757404_x_at) / RFU PLEKHG5 (11737974_s_at) / Fold change /veh PLEKHG5 (11737974_s_at) / RFU LRRC4B (11730491_at) / Fold change /veh LRRC4B (11730491_at) / RFU GIMAP4 (11747438_a_at) / Fold change /veh GIMAP4 (11747438_a_at) / RFU KRT8 (11758183_x_at) / Fold change /veh KRT8 (11758183_x_at) / RFU CNN1 (11734310_a_at) / Fold change /veh CNN1 (11734310_a_at) / RFU VPS37D (11726825_at) / Fold change /veh VPS37D (11726825_at) / RFU C10orf10 (11716522_x_at) / Fold change /veh C10orf10 (11716522_x_at) / RFU KIR2DL2 /// KIR2DL4 /// KIR2DL5A /// KIR2DL5B /// KIR2DS1 /// KIR2DS2 /// KIR2DS3 /// KIR2DS4 /// KIR3DL3 /// KIR3DL3 /// KIR3DS1 (11738374_at) / Fold change /veh KIR2DL2 /// KIR2DL4 /// KIR2DL5A /// KIR2DL5B /// KIR2DS1 /// KIR2DS2 /// KIR2DS3 /// KIR2DS4 /// KIR3DL3 /// KIR3DL3 /// KIR3DS1 (11738374_at) / RFU C1QL1 (11718748_at) / Fold change /veh C1QL1 (11718748_at) / RFU TMPRSS4 (11747572_a_at) / Fold change /veh TMPRSS4 (11747572_a_at) / RFU HAMP (11756126_x_at) / Fold change /veh HAMP (11756126_x_at) / RFU RNFT2 (11725882_a_at) / Fold change /veh RNFT2 (11725882_a_at) / RFU NR4A2 (11747474_a_at) / Fold change /veh NR4A2 (11747474_a_at) / RFU ABCC12 (11746883_a_at) / Fold change /veh ABCC12 (11746883_a_at) / RFU TMEM136 (11760407_x_at) / Fold change /veh TMEM136 (11760407_x_at) / RFU CLDN22 /// WWC2 (11732394_at) / Fold change /veh CLDN22 /// WWC2 (11732394_at) / RFU HLA-DPB1 (11760878_x_at) / Fold change /veh HLA-DPB1 (11760878_x_at) / RFU SPINT1 (11716480_a_at) / Fold change /veh SPINT1 (11716480_a_at) / RFU GAP43 (11754022_s_at) / Fold change /veh GAP43 (11754022_s_at) / RFU A4GNT (11735810_at) / Fold change /veh A4GNT (11735810_at) / RFU PRB3 (11715151_x_at) / Fold change /veh PRB3 (11715151_x_at) / RFU TUBB4B (11761932_at) / Fold change /veh TUBB4B (11761932_at) / RFU CAPN14 (11732068_a_at) / Fold change /veh CAPN14 (11732068_a_at) / RFU TMCC2 (11721928_a_at) / Fold change /veh TMCC2 (11721928_a_at) / RFU IRGQ (11745062_a_at) / Fold change /veh IRGQ (11745062_a_at) / RFU FAM174B (11720279_a_at) / Fold change /veh FAM174B (11720279_a_at) / RFU TMPRSS4 (11748680_a_at) / Fold change /veh TMPRSS4 (11748680_a_at) / RFU FAM212B (11763350_a_at) / Fold change /veh FAM212B (11763350_a_at) / RFU PLEKHG5 (11743358_a_at) / Fold change /veh PLEKHG5 (11743358_a_at) / RFU ZSCAN30 (11745921_a_at) / Fold change /veh ZSCAN30 (11745921_a_at) / RFU CMKLR1 (11741424_a_at) / Fold change /veh CMKLR1 (11741424_a_at) / RFU LOC101060620 /// MAPK8IP1 (11723275_at) / Fold change /veh LOC101060620 /// MAPK8IP1 (11723275_at) / RFU SPTSSB (11747773_x_at) / Fold change /veh SPTSSB (11747773_x_at) / RFU PRSS12 (11739890_at) / Fold change /veh PRSS12 (11739890_at) / RFU BIN1 (11741810_x_at) / Fold change /veh BIN1 (11741810_x_at) / RFU WNT11 (11732464_a_at) / Fold change /veh WNT11 (11732464_a_at) / RFU C10orf10 (11716521_a_at) / Fold change /veh C10orf10 (11716521_a_at) / RFU C5orf56 (11738089_at) / Fold change /veh C5orf56 (11738089_at) / RFU CYB561 (11721691_x_at) / Fold change /veh CYB561 (11721691_x_at) / RFU ANKRD19P (11752326_a_at) / Fold change /veh ANKRD19P (11752326_a_at) / RFU OR2T12 /// OR2T33 /// OR2T8 (11738714_s_at) / Fold change /veh OR2T12 /// OR2T33 /// OR2T8 (11738714_s_at) / RFU VCAN (11748164_a_at) / Fold change /veh VCAN (11748164_a_at) / RFU JSRP1 (11732532_at) / Fold change /veh JSRP1 (11732532_at) / RFU KRTAP10-11 (11738290_x_at) / Fold change /veh KRTAP10-11 (11738290_x_at) / RFU MYO3A (11730013_a_at) / Fold change /veh MYO3A (11730013_a_at) / RFU EBF3 (11725865_a_at) / Fold change /veh EBF3 (11725865_a_at) / RFU CAMK2N1 (11719241_x_at) / Fold change /veh CAMK2N1 (11719241_x_at) / RFU C5orf56 (11738088_a_at) / Fold change /veh C5orf56 (11738088_a_at) / RFU OLFML3 (11715873_a_at) / Fold change /veh OLFML3 (11715873_a_at) / RFU LOC100653217 /// NTM (11731650_a_at) / Fold change /veh LOC100653217 /// NTM (11731650_a_at) / RFU MAPK11 (11762145_a_at) / Fold change /veh MAPK11 (11762145_a_at) / RFU FIZ1 (11724087_x_at) / Fold change /veh FIZ1 (11724087_x_at) / RFU OASL (11726364_x_at) / Fold change /veh OASL (11726364_x_at) / RFU SOX15 (11748057_x_at) / Fold change /veh SOX15 (11748057_x_at) / RFU CD79A (11719716_a_at) / Fold change /veh CD79A (11719716_a_at) / RFU HIST1H1D (11736915_at) / Fold change /veh HIST1H1D (11736915_at) / RFU CASKIN2 (11723855_a_at) / Fold change /veh CASKIN2 (11723855_a_at) / RFU LOC730098 (11760151_x_at) / Fold change /veh LOC730098 (11760151_x_at) / RFU OR4N2 (11742367_at) / Fold change /veh OR4N2 (11742367_at) / RFU PRRT2 (11749266_a_at) / Fold change /veh PRRT2 (11749266_a_at) / RFU SNX32 (11753110_a_at) / Fold change /veh SNX32 (11753110_a_at) / RFU CDHR5 (11726645_a_at) / Fold change /veh CDHR5 (11726645_a_at) / RFU RCAN1 (11760418_a_at) / Fold change /veh RCAN1 (11760418_a_at) / RFU FAM167A (11723789_a_at) / Fold change /veh FAM167A (11723789_a_at) / RFU FAM26E (11764081_at) / Fold change /veh FAM26E (11764081_at) / RFU ISYNA1 (11749810_s_at) / Fold change /veh ISYNA1 (11749810_s_at) / RFU ACY1 (11761880_at) / Fold change /veh ACY1 (11761880_at) / RFU 11764098_at / Fold change /veh 11764098_at / RFU SAMD14 (11745864_x_at) / Fold change /veh SAMD14 (11745864_x_at) / RFU NPB (11741838_a_at) / Fold change /veh NPB (11741838_a_at) / RFU TMPRSS6 (11731388_a_at) / Fold change /veh TMPRSS6 (11731388_a_at) / RFU KRTAP10-2 (11738614_at) / Fold change /veh KRTAP10-2 (11738614_at) / RFU ARHGAP8 /// PRR5-ARHGAP8 (11727945_x_at) / Fold change /veh ARHGAP8 /// PRR5-ARHGAP8 (11727945_x_at) / RFU KRTAP5-7 /// NADSYN1 (11734609_at) / Fold change /veh KRTAP5-7 /// NADSYN1 (11734609_at) / RFU RASL12 (11751679_a_at) / Fold change /veh RASL12 (11751679_a_at) / RFU CDKN2B (11736163_a_at) / Fold change /veh CDKN2B (11736163_a_at) / RFU PRF1 (11729649_at) / Fold change /veh PRF1 (11729649_at) / RFU, ZNF638 /// ZNF638-IT1 / Fold change vs veh, ZNF638 /// ZNF638-IT1 / RFU, PANK3 / Fold change vs veh, PANK3 / RFU, SH3YL1 / Fold change vs veh, SH3YL1 / RFU, ZEB2 / Fold change vs veh, ZEB2 / RFU, NRIP1 / Fold change vs veh, NRIP1 / RFU, PTTG1IP / Fold change vs veh, PTTG1IP / RFU, CAPN2 / Fold change vs veh, CAPN2 / RFU, MED14 / Fold change vs veh, MED14 / RFU, SNORA58 / Fold change vs veh, SNORA58 / RFU, C1orf63 / Fold change vs veh, C1orf63 / RFU, LRRFIP1 / Fold change vs veh, LRRFIP1 / RFU, NDUFAF7 / Fold change vs veh, NDUFAF7 / RFU, SLC12A2 / Fold change vs veh, SLC12A2 / RFU, IBTK / Fold change vs veh, IBTK / RFU, ESF1 / Fold change vs veh, ESF1 / Fold change vs veh, TMEM50B / RFU, TAOK1 / Fold change vs veh, TAOK1 / RFU, ACBD3 / Fold change vs veh, ACBD3 / RFU, TMA16 / Fold change vs veh, TMA16 / RFU, RWDD3 / Fold change vs veh, RWDD3 / RFU, BCAT1 / Fold change vs veh, BCAT1 / RFU, EDEM3 / Fold change vs veh, EDEM3 / RFU, TMEM33 / Fold change vs veh, TMEM33 / RFU, WDR75 / Fold change vs veh, WDR75 / RFU, AHCTF1 / Fold change vs veh, AHCTF1 / RFU, TFRC / Fold change vs veh, TFRC / RFU, ZDHHC17 / Fold change vs veh, ZDHHC17 / RFU, NOM1 / Fold change vs veh, NOM1 / RFU, ARL8B / Fold change vs veh, ARL8B / RFU, ZBTB11 / Fold change vs veh, ZBTB11 / RFU, TAMM41 / Fold change vs veh, TAMM41 / RFU, KIAA1704 /// LOC100996395 / Fold change vs veh, KIAA1704 /// LOC100996395 / RFU, ING1 / Fold change vs veh, ING1 / RFU, TRMT61B / Fold change vs veh, TRMT61B / RFU, FUBP3 / Fold change vs veh, FUBP3 / RFU, TP53 / Fold change vs veh, TP53 / RFU, TNKS2 / Fold change vs veh, TNKS2 / RFU, ZFP14 / Fold change vs veh, ZFP14 / RFU, ACTR2 / Fold change vs veh, ACTR2 / RFU, PPP3R1 / Fold change vs veh, PPP3R1 / RFU, PIK3R1 / Fold change vs veh, PIK3R1 / RFU, HNRNPA1 / Fold change vs veh, HNRNPA1 / RFU, RNF170 / Fold change vs veh, RNF170 / RFU, ZNF28 / Fold change vs veh, ZNF28 / RFU, RNGTT / Fold change vs veh, RNGTT / RFU, OGT / Fold change vs veh, OGT / RFU, BRD1 / Fold change vs veh, BRD1 / RFU, MARS / Fold change vs veh, MARS / RFU, ZNF655 / Fold change vs veh, ZNF655 / RFU, FAHD1 / Fold change vs veh, FAHD1 / RFU, BDP1 / Fold change vs veh, BDP1 / RFU, LRRCC1 / Fold change vs veh, LRRCC1 / RFU, ARID1A / Fold change vs veh, ARID1A / RFU, ZNF146 / Fold change vs veh, ZNF146 / RFU, ZNF330 / Fold change vs veh, ZNF330 / RFU, GPN3 / Fold change vs veh, GPN3 / RFU, C9orf123 / Fold change vs veh, C9orf123 / RFU, N4BP2L2 / Fold change vs veh, N4BP2L2 / RFU, ARFIP1 / Fold change vs veh, ARFIP1 / RFU, FAM179B / Fold change vs veh, FAM179B / RFU, BCL10 / Fold change vs veh, BCL10 / RFU, UHRF1BP1L / Fold change vs veh, UHRF1BP1L / RFU, BET1 / Fold change vs veh, BET1 / RFU, CNOT2 / Fold change vs veh, CNOT2 / RFU, ZNF268 / Fold change vs veh, ZNF268 / Fold change vs veh, ZNF507 / RFU, DGCR2 / Fold change vs veh, DGCR2 / RFU, WDSUB1 / Fold change vs veh, WDSUB1 / Fold change vs veh, HSP90B1 /// MIR3652 / RFU, ADSS / Fold change vs veh, ADSS / RFU, GK / Fold change vs veh, GK / RFU, ZNF148 / Fold change vs veh, ZNF148 / RFU, TAF9 / Fold change vs veh, TAF9 / RFU, SLC1A5 / Fold change vs veh, SLC1A5 / RFU, SLMO2 / Fold change vs veh, SLMO2 / RFU, ABCC4 / Fold change vs veh, ABCC4 / RFU, LOC101060439 /// RAP1B / Fold change vs veh, LOC101060439 /// RAP1B / RFU, RFX7 / Fold change vs veh, RFX7 / RFU, GTPBP10 / Fold change vs veh, GTPBP10 / RFU, CNEP1R1 / Fold change vs veh, CNEP1R1 / RFU, BIVM-ERCC5 /// ERCC5 / Fold change vs veh, BIVM-ERCC5 /// ERCC5 / RFU, ILF3 / Fold change vs veh, ILF3 / RFU 11762660_at / Fold change /veh 11762660_at / RFU VCAN (11757783_s_at) / Fold change /veh VCAN (11757783_s_at) / RFU DDX43 (11728927_at) / Fold change /veh DDX43 (11728927_at) / RFU KRT8 (11758188_x_at) / Fold change /veh KRT8 (11758188_x_at) / RFU NKD1 (11759106_at) / Fold change /veh NKD1 (11759106_at) / RFU SRD5A1 (11742802_a_at) / Fold change /veh SRD5A1 (11742802_a_at) / RFU TPSAB1 /// TPSB2 (11721975_s_at) / Fold change /veh TPSAB1 /// TPSB2 (11721975_s_at) / RFU GSTM3 (11746129_a_at) / Fold change /veh GSTM3 (11746129_a_at) / RFU IL23R (11737362_x_at) / Fold change /veh IL23R (11737362_x_at) / RFU TMEM51 (11727254_a_at) / Fold change /veh TMEM51 (11727254_a_at) / RFU PIWIL2 (11732686_x_at) / Fold change /veh PIWIL2 (11732686_x_at) / RFU ORM1 (11744905_x_at) / Fold change /veh ORM1 (11744905_x_at) / RFU CCDC152 (11743942_at) / Fold change /veh CCDC152 (11743942_at) / RFU ECM1 (11717891_a_at) / Fold change /veh ECM1 (11717891_a_at) / RFU IL23R (11748794_a_at) / Fold change /veh IL23R (11748794_a_at) / RFU TNFAIP8L3 (11732012_x_at) / Fold change /veh TNFAIP8L3 (11732012_x_at) / RFU MBOAT4 (11741988_at) / Fold change /veh MBOAT4 (11741988_at) / RFU 11764193_at / Fold change /veh 11764193_at / RFU TMEM53 (11763286_at) / Fold change /veh TMEM53 (11763286_at) / RFU MAGEB2 (11727129_at) / Fold change /veh MAGEB2 (11727129_at) / RFU TMEM200A (11744735_a_at) / Fold change /veh TMEM200A (11744735_a_at) / RFU CCDC152 (11751479_a_at) / Fold change /veh CCDC152 (11751479_a_at) / RFU FAM211A (11726209_a_at) / Fold change /veh FAM211A (11726209_a_at) / RFU RGS16 (11746705_a_at) / Fold change /veh RGS16 (11746705_a_at) / RFU VCAN (11755009_s_at) / Fold change /veh VCAN (11755009_s_at) / RFU RHOB (11743442_s_at) / Fold change /veh RHOB (11743442_s_at) / RFU RGS16 (11720943_a_at) / Fold change /veh RGS16 (11720943_a_at) / RFU RGS16 (11720944_at) / Fold change /veh RGS16 (11720944_at) / RFU, VPS4B / Fold change vs veh, VPS4B / RFU, CREB1 / Fold change vs veh, CREB1 / RFU, DNAJC13 / Fold change vs veh, DNAJC13 / RFU, GNAQ / Fold change vs veh, GNAQ / RFU, CDK5R1 / Fold change vs veh, CDK5R1 / RFU, ZRANB3 / Fold change vs veh, ZRANB3 / RFU, CUL4A / Fold change vs veh, CUL4A / RFU, CCNY / Fold change vs veh, CCNY / RFU, UFL1 / Fold change vs veh, UFL1 / RFU, COG3 / Fold change vs veh, COG3 / RFU, DIAPH2 / Fold change vs veh, DIAPH2 / RFU, SKA2 / Fold change vs veh, SKA2 / RFU, AFF3 / Fold change vs veh, AFF3 / RFU, LMF1 / Fold change vs veh, LMF1 / RFU, IPO11 / Fold change vs veh, IPO11 / RFU, DFFB / Fold change vs veh, DFFB / RFU, FOXP1 / Fold change vs veh, FOXP1 / RFU, CARD8 / Fold change vs veh, CARD8 / RFU, STRN3 / Fold change vs veh, STRN3 / RFU, ADK / Fold change vs veh, ADK / RFU, RASSF2 / Fold change vs veh, RASSF2 / RFU, WIPF1 / Fold change vs veh, WIPF1 / RFU, LARP1B / Fold change vs veh, LARP1B / RFU, RASA1 / Fold change vs veh, RASA1 / RFU, RB1 / Fold change vs veh, RB1 / RFU, PPFIA1 / Fold change vs veh, PPFIA1 / RFU, MAT2A / Fold change vs veh, MAT2A / RFU, CCT5 / Fold change vs veh, CCT5 / RFU, WDR92 / Fold change vs veh, WDR92 / RFU, CUX1 / Fold change vs veh, CUX1 / RFU, TTC7A / Fold change vs veh, TTC7A / RFU, TMEM135 / Fold change vs veh, TMEM135 / RFU, DEPTOR / Fold change vs veh, DEPTOR / RFU, CPM / Fold change vs veh, CPM / RFU, DNAJB6 / Fold change vs veh, DNAJB6 / RFU, CACNA2D3 / Fold change vs veh, CACNA2D3 / RFU, DTX4 / Fold change vs veh, DTX4 / RFU, TFCP2 / Fold change vs veh, TFCP2 / RFU, GMCL1 /// GMCL1P1 / Fold change vs veh, GMCL1 /// GMCL1P1 / RFU, AEBP2 / Fold change vs veh, AEBP2 / RFU, SNHG1 /// SNORD22 /// SNORD25 /// SNORD26 /// SNORD27 /// SNORD28 /// SNORD29 /// SNORD31 / Fold change vs veh, SNHG1 /// SNORD22 /// SNORD25 /// SNORD26 /// SNORD27 /// SNORD28 /// SNORD29 /// SNORD31 / Fold change (Aza/veh), C12orf56 (ProbeSet 11735607_a_at) / Fold change (ACY-1035/veh), C12orf56 (ProbeSet 11735607_a_at) / Fold change (Aza/veh), FGFR1OP (ProbeSet 11751329_s_at) / Fold change (ACY-1035/veh), FGFR1OP (ProbeSet 11751329_s_at) / Fold change (Aza/veh), VPS36 (ProbeSet 11739960_a_at) / Fold change (ACY-1035/veh), VPS36 (ProbeSet 11739960_a_at) / RFU SYPL1 (11715823_x_at) / Fold change /veh SYPL1 (11715823_x_at) / RFU IGFBP7 (11715501_s_at) / Fold change /veh IGFBP7 (11715501_s_at) / RFU REEP3 (11722064_at) / Fold change /veh REEP3 (11722064_at) / RFU IGLL1 (11728026_x_at) / Fold change /veh IGLL1 (11728026_x_at): dose or concentration left out as unconfirmed
Settings: ProbeSet 11745428_a_at; LIST D

Nc1ccc(-c2cccs2)cc1NC(=O)c1ccc2c(c1)cc(C1CC1)n2CCN1CCOCC1 [ACY-1035]
RFU, DFFB: 104.10 RFU
